The source of these data is patent US9453026B2, “ACC inhibitors and uses thereof” (Gilead Apollo, Inc., priority 2011, dated 2016).

Assay [1] can be described thus: Respiratory Quotient Measurement Assay. Conditions: rats, FIG. 9 and FIG. 10. In kind it is in vivo, Sprague-Dawley rats. Here is the method:
Compounds of the present invention were also assayed in a Respiratory Quotient Measurement Assay, as described by Harwood et al. “Isozyme-nonselective N-Substituted Bipiperidylcarboxamide Acetyl-CoA Carboxylase Inhibitors Reduce Tissue Malonyl-CoA Concentrations, Inhibit Fatty Acid Synthesis, and Increase Fatty Acid Oxidation in Cultured Cells and in Experimental Animals” Journal of Biological Chemistry (2008) 278, 37099-37111. An exemplary procedure for the assay, which measures the ratio of carbon dioxide production to oxygen consumption in rats, follows.
Male Sprague-Dawley rats (350-400 g) housed under standard laboratory conditions, either fed chow, fasted, or fasted and refed a diet high in sucrose for 2 days prior to experimentation were removed from their home cages, weighed, and placed into sealed chambers (43″43″10 cm) of the calorimeter (one rat per chamber). The chambers were placed in activity monitors. The calorimeter was calibrated before each use, air flow rate was adjusted to 1.6 liters/min, and the system settling and sampling times were set to 60 and 15 s, respectively. Base-line oxygen consumption, CO2 production, and ambulatory activity were measured every 10 min for up to 3 h before treatment. […]

Assay [2] can be described thus: High sucrose diet DIO study, plasma cholesterol and triglycerides. Format: in vivo, Sprague Dawley rats. Conditions: for Plasma Cholesterol / Plasma Triglycerides: high sucrose-fed DIO rats, mean ± SEM, n=14. Here is the method:
The compounds of the present invention are readily adapted to clinical use as anti-obesity agents, insulin sensitizing agents, hyperinsulinemia-reversing agents, and hepatic steatosis-reversing agents. Such activity was determined by assessing the amount of test compound that reduces body weight and percentage body fat, reduces plasma insulin levels, blunts the rise and/or accelerates the reduction in plasma insulin and glucose levels in response to an oral glucose challenge, and reduces hepatic lipid content relative to a control vehicle without test compound in mammals. Sprague Dawley rats were fed either chow, a diet high in sucrose (for example AIN76A rodent diet; Research diets Inc. Cat #10001) or a diet high in fat (for example Research diets Inc. Cat #12451), for from 3-8 weeks prior to and during test compound administration.
For example, after a 3-8 week period of ad libitum feeding of either a chow, high-fat, or high-sucrose diet, animals that continued to receive the diet were treated for 1-8 weeks with test compound administered either by oral gavage in water or saline or water or saline containing 0.5% methylcelluose using a Q.D., B.I.D, or T.I.D. dosing regimen. At various times during study and at sacrifice (by CO2 asphyxiation), blood was collected either from the tail vein of an unanesthesized rat or from the vena cava of animals at sacrifice into heparin or EDTA containing tubes for centrifugal separation to prepare plasma. Plasma levels of parameters of lipid and carbohydrate metabolism known by those skilled in the art to be altered coincident with anti-obesity, insulin sensitizing, hyperinsulinemia-reversing, and hepatic steatosis-reversing actions, including but not limited to cholesterol and triglycerides, glucose, insulin, leptin, adiponectin, ketone bodies, free fatty acids, and glycerol, are measured using methods known to those skilled in the art.
The anti-obesity, insulin sensitizing, hyperinsulinemia-reversing, and hepatic steatosis-reversing potential of compounds of the present invention are exemplified through the actions of example compound I-181. […] Results of the reduction in total body weight measurements after treatment of high fat diet-fed DIO rats with compound I-181 are shown in FIG. 11. The degree of body weight reduction paralleled plasma drug levels measured at the end of the study. […] The plasma leptin levels for animals receiving the standard chow diet (lean controls) were also evaluated to determine the extent of parameter normalization produced by compound I-181. […] Results of the reduction in plasma insulin measurements after treatment of high fat diet-fed DIO rats with compound I-181 are shown in FIG. 12. […] Results of the reduction in hepatic triglyceride and cholesterol measurements after treatment of high fat diet-fed DIO rats with compound I-181 are shown in FIG. 13. […] Results of diet-induced obesity studies measuring the effect of compound I-181 on plasma cholesterol and plasma triglycerides are shown in Table 4 below. Data shown are mean values for n=14 animals per group±SEM.

For a further assay, the target named is ACC2 (Homo sapiens, UniProt O00763). Put plainly: In vitro ACC2 inhibition assay (ADP-Glo). Format: biochemical. An outline of the steps: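 Enzyme (human ACC1 or ACC2) and compound, serially diluted 1:3 over 11 points from a 600 uM DMSO stock, were preincubated 15 min before substrate addition.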
Chain of ACC2 (O00763 whole entry, species assumed): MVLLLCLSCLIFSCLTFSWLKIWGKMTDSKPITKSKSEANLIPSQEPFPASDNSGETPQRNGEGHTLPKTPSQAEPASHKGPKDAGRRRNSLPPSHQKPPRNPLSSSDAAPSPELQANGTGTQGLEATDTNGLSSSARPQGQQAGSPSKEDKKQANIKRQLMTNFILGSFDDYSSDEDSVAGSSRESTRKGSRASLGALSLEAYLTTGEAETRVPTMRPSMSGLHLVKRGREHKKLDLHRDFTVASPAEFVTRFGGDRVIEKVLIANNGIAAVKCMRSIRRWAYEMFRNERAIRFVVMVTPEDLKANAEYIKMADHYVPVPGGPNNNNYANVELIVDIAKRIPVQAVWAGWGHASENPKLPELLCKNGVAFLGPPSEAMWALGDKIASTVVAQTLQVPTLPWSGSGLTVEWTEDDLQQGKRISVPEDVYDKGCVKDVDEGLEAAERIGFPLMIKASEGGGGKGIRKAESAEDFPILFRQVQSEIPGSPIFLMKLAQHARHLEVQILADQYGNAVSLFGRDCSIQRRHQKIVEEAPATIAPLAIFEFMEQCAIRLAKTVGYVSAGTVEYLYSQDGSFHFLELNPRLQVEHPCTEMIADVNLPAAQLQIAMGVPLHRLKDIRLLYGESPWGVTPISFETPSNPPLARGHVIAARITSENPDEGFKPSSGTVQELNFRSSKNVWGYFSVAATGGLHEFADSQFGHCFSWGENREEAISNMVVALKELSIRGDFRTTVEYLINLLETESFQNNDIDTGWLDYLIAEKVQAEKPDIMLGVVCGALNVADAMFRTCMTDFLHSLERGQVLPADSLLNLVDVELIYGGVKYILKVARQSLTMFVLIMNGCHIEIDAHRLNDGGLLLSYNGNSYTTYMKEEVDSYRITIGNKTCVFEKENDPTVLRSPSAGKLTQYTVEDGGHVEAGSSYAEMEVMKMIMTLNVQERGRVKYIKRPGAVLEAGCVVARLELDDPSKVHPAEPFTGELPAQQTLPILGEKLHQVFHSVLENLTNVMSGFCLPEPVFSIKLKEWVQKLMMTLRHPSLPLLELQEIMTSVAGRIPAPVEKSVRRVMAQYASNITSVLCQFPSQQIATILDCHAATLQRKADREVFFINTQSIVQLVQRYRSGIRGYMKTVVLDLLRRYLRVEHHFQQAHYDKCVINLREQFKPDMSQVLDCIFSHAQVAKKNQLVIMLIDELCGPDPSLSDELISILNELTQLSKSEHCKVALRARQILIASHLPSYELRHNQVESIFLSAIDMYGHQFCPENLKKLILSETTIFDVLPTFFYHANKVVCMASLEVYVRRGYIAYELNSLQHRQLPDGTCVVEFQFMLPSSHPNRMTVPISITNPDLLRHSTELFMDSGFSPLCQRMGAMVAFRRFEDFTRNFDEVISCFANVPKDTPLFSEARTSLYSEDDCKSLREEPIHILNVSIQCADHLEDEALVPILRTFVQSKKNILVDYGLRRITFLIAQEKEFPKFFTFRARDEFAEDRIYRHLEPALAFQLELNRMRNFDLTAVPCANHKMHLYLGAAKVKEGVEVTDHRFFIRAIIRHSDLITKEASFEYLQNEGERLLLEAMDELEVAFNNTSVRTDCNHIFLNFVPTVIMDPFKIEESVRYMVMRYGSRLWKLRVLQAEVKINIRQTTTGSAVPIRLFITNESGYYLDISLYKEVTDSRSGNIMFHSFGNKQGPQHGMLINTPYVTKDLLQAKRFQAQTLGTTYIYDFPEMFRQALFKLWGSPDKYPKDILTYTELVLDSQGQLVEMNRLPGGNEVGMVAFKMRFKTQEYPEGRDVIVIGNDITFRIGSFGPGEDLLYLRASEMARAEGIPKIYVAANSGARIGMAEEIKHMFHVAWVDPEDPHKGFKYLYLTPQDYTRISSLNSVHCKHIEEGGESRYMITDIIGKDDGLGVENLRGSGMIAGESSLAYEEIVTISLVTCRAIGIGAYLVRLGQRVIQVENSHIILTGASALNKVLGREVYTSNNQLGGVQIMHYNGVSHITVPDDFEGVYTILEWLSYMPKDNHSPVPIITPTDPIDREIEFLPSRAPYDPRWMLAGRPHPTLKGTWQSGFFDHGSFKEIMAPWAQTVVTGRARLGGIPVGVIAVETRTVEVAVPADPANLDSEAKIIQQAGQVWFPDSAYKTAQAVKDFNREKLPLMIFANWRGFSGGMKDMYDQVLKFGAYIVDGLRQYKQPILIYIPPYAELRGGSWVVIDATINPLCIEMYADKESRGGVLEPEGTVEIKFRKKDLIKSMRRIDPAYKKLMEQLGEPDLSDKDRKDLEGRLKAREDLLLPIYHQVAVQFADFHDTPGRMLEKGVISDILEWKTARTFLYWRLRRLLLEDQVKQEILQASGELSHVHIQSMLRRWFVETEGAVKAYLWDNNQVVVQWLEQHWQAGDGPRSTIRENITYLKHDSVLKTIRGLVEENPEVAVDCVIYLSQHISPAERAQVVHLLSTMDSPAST

On to `COc1ccccc1[C@H](Cn1c(=O)n(C(C)(C)C(=O)O)c(=O)c2c(C)c(-c3ncco3)sc21)OC1CCOCC1` [I-181, 2-[1-[2-(2-methoxyphenyl)-2-(oxan-4-yloxy)ethyl]-5-methyl-6-(1,3-oxazol-2-yl)-2,4-dioxo-1H,2H,3H,4H-thieno[2,3-d]pyrimidin-3-yl]-2-methylpropanoic acid], for which the “RQ relative to baseline” value in assay [1] was 80-90 % of its baseline value. In assay [1] (doses of 3, 10, 30 and 100 mg/kg), the “RQ, dose dependence” value is on record as “dose-dependent decreases in RQ”. Further, the “plasma cholesterol and triglyceride levels” value in assay [2] (high sucrose diet rats, 3, 10, 30 mg/kg once daily oral gavage, two weeks) was “dose-dependent reduction in plasma cholesterol and triglyceride levels”. In addition, the “Plasma Cholesterol” value came out at 94 ± 3 mg/dL in assay [2] (3 mg/kg, Day 7); 96 ± 3 mg/dL in assay [2] (3 mg/kg, Day 14); 96 ± 2 mg/dL in assay [2] (3 mg/kg, Prebleed); 82 ± 3 mg/dL in assay [2] (10 mg/kg, Day 7); 87 ± 3 mg/dL in assay [2] (10 mg/kg, Day 14); 96 ± 3 mg/dL in assay [2] (10 mg/kg, Prebleed). For the same compound, the “Plasma Cholesterol” value in assay [2] (30 mg/kg, Day 7) was 78 ± 3 mg/dL; in assay [2] (30 mg/kg, Day 14), 78 ± 2 mg/dL; in assay [2] (30 mg/kg, Prebleed), 99 ± 3 mg/dL. The “Plasma Triglycerides” value in assay [2] (3 mg/kg, Day 7) is 154 ± 15 mg/dL; in assay [2] (3 mg/kg, Day 14), 171 ± 16 mg/dL; in assay [2] (3 mg/kg, Prebleed), 144 ± 12 mg/dL; in assay [2] (10 mg/kg, Day 7), 139 ± 10 mg/dL; in assay [2] (10 mg/kg, Day 14), 165 ± 15 mg/dL; in assay [2] (10 mg/kg, Prebleed) it was 183 ± 18 mg/dL. Moreover, the “Plasma Triglycerides” value came out at 116 ± 9 mg/dL in assay [2] (30 mg/kg, Day 7); 118 ± 14 mg/dL in assay [2] (30 mg/kg, Day 14); 166 ± 13 mg/dL in assay [2] (30 mg/kg, Prebleed). Further, the half-inhibitory concentration (IC50) at ACC2 was < 100 nM.
